Measurements from ChEMBL document CHEMBL1159111, “Design, synthesis and biological evaluation of chrysin long-chain derivatives as potential anticancer agents” (Bioorg Med Chem, 2010).
In brackets after ≈: the same amount, converted by molar mass.

Tests used:
[1] = test system: HT-29; assay: Antiproliferative activity against human HT-29 cells after 48 hrs by MTT assay; conditions: HT-29, 48 h
[2] = molecular target: Epidermal growth factor receptor (Homo sapiens, UniProt P00533); assay: Inhibition of EGFR expressed in Sf9 cells assessed as inhibition of receptor autophosphorylation by DELFIA time resolved fluorimetry
Epidermal growth factor receptor, sequence (P00533 whole entry): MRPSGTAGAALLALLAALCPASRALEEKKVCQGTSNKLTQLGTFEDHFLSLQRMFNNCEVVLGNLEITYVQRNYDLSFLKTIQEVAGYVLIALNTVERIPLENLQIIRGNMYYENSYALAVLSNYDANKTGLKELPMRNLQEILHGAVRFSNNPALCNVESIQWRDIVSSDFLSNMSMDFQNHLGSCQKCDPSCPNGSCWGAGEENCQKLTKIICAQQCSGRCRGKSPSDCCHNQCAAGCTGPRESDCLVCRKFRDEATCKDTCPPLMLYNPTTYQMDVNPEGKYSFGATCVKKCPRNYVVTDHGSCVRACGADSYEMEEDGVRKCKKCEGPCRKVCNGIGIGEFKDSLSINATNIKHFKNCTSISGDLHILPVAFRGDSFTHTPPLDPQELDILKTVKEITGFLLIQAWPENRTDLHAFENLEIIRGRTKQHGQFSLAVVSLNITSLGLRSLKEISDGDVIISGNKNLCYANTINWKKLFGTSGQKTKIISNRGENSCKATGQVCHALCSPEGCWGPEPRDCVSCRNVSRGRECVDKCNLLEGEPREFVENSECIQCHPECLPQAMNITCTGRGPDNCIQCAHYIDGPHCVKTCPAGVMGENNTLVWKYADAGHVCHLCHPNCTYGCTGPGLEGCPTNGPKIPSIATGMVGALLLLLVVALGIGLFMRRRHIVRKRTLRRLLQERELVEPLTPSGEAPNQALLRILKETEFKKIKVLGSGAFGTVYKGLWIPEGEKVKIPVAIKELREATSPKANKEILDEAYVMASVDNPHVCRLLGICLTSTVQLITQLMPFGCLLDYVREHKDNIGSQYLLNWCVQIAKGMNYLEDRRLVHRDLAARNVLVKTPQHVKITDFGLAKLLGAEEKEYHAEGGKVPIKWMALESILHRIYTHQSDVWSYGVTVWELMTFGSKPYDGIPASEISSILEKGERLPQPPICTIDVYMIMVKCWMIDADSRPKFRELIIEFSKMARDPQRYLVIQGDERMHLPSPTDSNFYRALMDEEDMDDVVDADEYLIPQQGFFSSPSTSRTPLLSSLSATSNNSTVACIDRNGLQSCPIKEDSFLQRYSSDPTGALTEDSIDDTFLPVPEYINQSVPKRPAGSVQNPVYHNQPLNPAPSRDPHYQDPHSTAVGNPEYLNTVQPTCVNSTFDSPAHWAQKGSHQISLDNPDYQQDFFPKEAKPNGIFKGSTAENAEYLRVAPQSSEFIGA

Structure (SMILES) | IC50 [1] [µg/mL] | IC50 [2] [nM]
CCCCCCNC(=O)COc1cc(O)c2c(=O)cc(-c3ccccc3)oc2c1 | 67 (≈ 169 µM) | 8710
CCCCCCCCCCCCCCCCCCCCOC(=O)COc1cc(O)c2c(=O)cc(-c3ccccc3)oc2c1 | 20 (≈ 33.7 µM) | 1590
CCCCCCCOC(=O)COc1cc(O)c2c(=O)cc(-c3ccccc3)oc2c1 | 58 (≈ 141 µM) | 7230
CCCCCCCNC(=O)COc1cc(O)c2c(=O)cc(-c3ccccc3)oc2c1 | 65 (≈ 159 µM) | 6280
CCCCCCCCOC(=O)COc1cc(O)c2c(=O)cc(-c3ccccc3)oc2c1 | 51 (≈ 120 µM) | 5840
CCCCCCCCCCCCNC(=O)COc1cc(O)c2c(=O)cc(-c3ccccc3)oc2c1 | 16 (≈ 33.4 µM) | 
CCCCCCCCCCCCCCNC(=O)COc1cc(O)c2c(=O)cc(-c3ccccc3)oc2c1 | 8 (≈ 15.8 µM) | 316
CCCCCCCCCCCCCCCCCCCCNC(=O)COc1cc(O)c2c(=O)cc(-c3ccccc3)oc2c1 | 19 (≈ 32.1 µM) | 1350
CCCCCCCCCCCCOC(=O)COc1cc(O)c2c(=O)cc(-c3ccccc3)oc2c1 | 24 (≈ 49.9 µM) | 1720
CCCCCCCCCOC(=O)COc1cc(O)c2c(=O)cc(-c3ccccc3)oc2c1 | 43 (≈ 98.1 µM) | 4960
CCCCCCCCCCCCCCCCNC(=O)COc1cc(O)c2c(=O)cc(-c3ccccc3)oc2c1 | 4.2 (≈ 7.84 µM) | 35

Results, then the molecule that gave them:

IC50 [1] [µg/mL] | IC50 [2] [nM] | Structure (SMILES)
51 (≈ 120 µM) | 5330 | CCCCCCCCNC(=O)COc1cc(O)c2c(=O)cc(-c3ccccc3)oc2c1
31 (≈ 68.5 µM) | 3110 | CCCCCCCCCCOC(=O)COc1cc(O)c2c(=O)cc(-c3ccccc3)oc2c1
15 (≈ 26.6 µM) | 692 | CCCCCCCCCCCCCCCCCCOC(=O)COc1cc(O)c2c(=O)cc(-c3ccccc3)oc2c1
77 (≈ 194 µM) | 9120 | CCCCCCOC(=O)COc1cc(O)c2c(=O)cc(-c3ccccc3)oc2c1
16 (≈ 31.5 µM) |  | CCCCCCCCCCCCCCOC(=O)COc1cc(O)c2c(=O)cc(-c3ccccc3)oc2c1
8.7 (≈ 16.2 µM) | 48 | CCCCCCCCCCCCCCCCOC(=O)COc1cc(O)c2c(=O)cc(-c3ccccc3)oc2c1
25 (≈ 55.4 µM) | 2140 | CCCCCCCCCCNC(=O)COc1cc(O)c2c(=O)cc(-c3ccccc3)oc2c1
11 (≈ 19.5 µM) | 464 | CCCCCCCCCCCCCCCCCCNC(=O)COc1cc(O)c2c(=O)cc(-c3ccccc3)oc2c1
39 (≈ 89.1 µM) | 3580 | CCCCCCCCCNC(=O)COc1cc(O)c2c(=O)cc(-c3ccccc3)oc2c1
